Test results from US9856279B2 (AGIOS PHARMACEUTICALS, INC, priority 2011, dated 2018).

What was measured:
U87MG cells = assay: Cellular assay for IDH1m inhibitors: inhibition of 2-HG production (LC-MS, 48 hours) in U87MG cells; assay type: cell-based; conditions: Homo sapiens, U-87 MG, inhibition of 2-HG production, U87R132H cells; read-out: U87R132H IC50
Protocol: (§1) Cells (e.g., HT1080 or U87MG) and are grown in T125 flasks in DMEM containing 10% FBS, 1× penicillin/streptomycin and 500 ug/mL G418. They are harvested by trypsin and seeded into 96 well white bottom plates at a density of 5000 cell/well in 100 ul/well in DMEM with 10% FBS. No cells are plates in columns 1 and 12. Cells are incubated overnight at 37° C. in 5% CO2. The next day compounds are made up at 2× concentration and 100 ul are added to each cell well. The final concentration of DMSO is 0.2% and the DMSO control wells are plated in row G. The plates are then placed in the incubator for 48 hours. At 48 hours, 100 μl of media is removed from each well and analyzed by LC-MS for 2-HG concentrations. The cell plate is placed back in the incubator for another 24 hours. At 72 hours post compound addition, 10 mL/plate of Promega Cell Titer Glo reagent is thawed and mixed. The cell plate is removed from the incubator and allowed to equilibrate to room temperature. Then 100 ul of reagent is added to each well of media. The cell plate is then placed on an orbital shaker for 10 minutes and then allowed to sit at room temperature for 20 minutes. The plate is then read for luminescence with an integration time of 500 ms.
(§2) The IC50 for inhibition of 2-HG production (concentration of test compound to reduce 2HG production by 50% compared to control) in these two cell lines for various compounds of formula I is set forth in Table 4 above.

IDH1 R132H = IDH1 R132H (Homo sapiens, UniProt O75874, R132H); assay: Assay for IDH1 R132H inhibitors (NADPH/aKG, resazurin detection); assay type: biochemical; conditions: enzyme assay of Example 12; read-out: IDH1R132H IC50
In short: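 Compound added to substrate mix (8 uM NADPH, 2 mM aKG), then enzyme mix (0.2 μg/ml IDH1 R132H); 50 min RT in 20 mM Tris pH 7.5, 150 mM NaCl, 10 mM MgCl2, 0.03% BSA. Resazurin detection mix (30 μM) 5 min RT; resorufin fluorescence Ex544/Em590.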

HT1080 cells = assay: Cellular assay for IDH1m inhibitors: inhibition of 2-HG production (LC-MS, 48 hours) in HT1080 cells; assay type: cell-based; conditions: Homo sapiens, HT-1080; inhibition of 2-HG production, HT1080 cells; read-out: HT1080 IC50
Protocol: as §1, §2

Sequence of IDH1 R132H (O75874 whole entry R132H): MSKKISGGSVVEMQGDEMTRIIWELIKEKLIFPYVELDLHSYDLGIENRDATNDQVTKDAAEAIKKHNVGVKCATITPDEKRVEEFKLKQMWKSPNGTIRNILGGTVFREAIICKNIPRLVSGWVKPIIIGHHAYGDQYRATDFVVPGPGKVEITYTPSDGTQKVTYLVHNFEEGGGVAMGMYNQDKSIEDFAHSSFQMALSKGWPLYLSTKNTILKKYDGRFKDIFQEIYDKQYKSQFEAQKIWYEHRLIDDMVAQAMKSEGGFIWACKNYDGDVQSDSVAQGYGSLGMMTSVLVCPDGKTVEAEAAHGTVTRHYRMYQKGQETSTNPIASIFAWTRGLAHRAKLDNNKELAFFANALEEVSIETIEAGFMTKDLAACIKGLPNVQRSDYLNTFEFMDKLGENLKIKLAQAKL

With `CCO[C@H]1C[C@@H]1C(=O)N1CCN(c2nc(C3CC3)c(-c3cccc4cnccc34)cc2C#N)C[C@H]1C1CC1` [Compound 518, 6-cyclopropyl-2-((R)-3-cyclopropyl-4-((1S,2S)-2-ethoxycyclopropanecarbonyl)piperazin-1-yl)-5-(isoquinolin-5-yl)nicotinonitrile] the IC50 (U87MG cells) was less than 500 nM and the IC50 (IDH1 R132H) was less than 500 nM.
In the case of `C=Cc1ncc2c(-c3cc(C#N)c(N4CCN(C(=O)CCO)[C@H](C(C)C)C4)nc3C3CC3)cccc2n1` [Compound 650, (R)-6-cyclopropyl-2-(4-(3-hydroxypropanoyl)-3-isopropylpiperazin-1-yl)-5-(2-vinylquinazolin-5-yl)nicotinonitrile], the IC50 (U87MG cells) is reported as less than 500 nM and the IC50 (IDH1 R132H) is reported as less than 500 nM.
In the case of `C=Cc1ncc2c(-c3cc(C#N)c(N4CCN(C(=O)CCO)[C@H](C5CC5)C4)nc3C3CC3)cccc2n1` [Compound 651, (R)-6-cyclopropyl-2-(3-cyclopropyl-4-(3-hydroxypropanoyl)piperazin-1-yl)-5-(2-vinylquinazolin-5-yl)nicotinonitrile], the IC50 (U87MG cells) is reported as less than 500 nM and the IC50 (IDH1 R132H) is reported as less than 500 nM.
For `C=Cc1cc(-c2cc(C#N)c(N3CCN(C(=O)CCOC)[C@H](C4CC4)C3)nc2C2CC2)c2ccncc2n1` [Compound 658, (R)-6-cyclopropyl-2-(3-cyclopropyl-4-(3-methoxypropanoyl)piperazin-1-yl)-5-(2-vinyl-1,7-naphthyridin-4-yl)nicotinonitrile], the IC50 (U87MG cells) was less than 500 nM and the IC50 (IDH1 R132H) was less than 500 nM.
With `C=Cc1cc(-c2cc(C#N)c(N3CCN(C(=O)C4(O)CC4)[C@H](C)C3)nc2C2CC2)ccn1` [Compound 664, (R)-2-cyclopropyl-6-(4-(1-hydroxycyclopropanecarbonyl)-3-methylpiperazin-1-yl)-2′-vinyl-3,4′-bipyridine-5-carbonitrile] the IC50 (HT1080 cells) was less than 500 nM and the IC50 (IDH1 R132H) was less than 500 nM.
`COCCC(=O)N1CCN(c2nc(C3CC3)c(Oc3ccnc(Cl)c3)cc2C#N)C[C@H]1C` [Compound 668, (R)-5-((2-chloropyridin-4-yl)oxy)-6-cyclopropyl-2-(4-(3-methoxypropanoyl)-3-methylpiperazin-1-yl)nicotinonitrile] was tested, and the IC50 (HT1080 cells) was 500 to 1000 nM and the IC50 (IDH1 R132H) was less than 500 nM.
In the case of `C=Cc1nc(-c2cc(C#N)c(N3CCN(C(=O)C4CC4)[C@H](C4CC4)C3)nc2C2CC2)c2ccccc2n1` [Compound 669, (R)-2-(4-(cyclopropanecarbonyl)-3-cyclopropylpiperazin-1-yl)-6-cyclopropyl-5-(2-vinylquinazolin-4-yl)nicotinonitrile], the IC50 (HT1080 cells) is reported as less than 500 nM and the IC50 (IDH1 R132H) is reported as less than 500 nM.
Work on `C=Cc1cc(-c2cc(C#N)c(N3CCN(C(=O)CCOC)[C@H](C)C3)nc2C2CC2)cc(C#N)n1` [Compound 672, (R)-2-cyclopropyl-6-(4-(3-methoxypropanoyl)-3-methylpiperazin-1-yl)-6′-vinyl-[3,4′-bipyridine]-2′,5-dicarbonitrile] yielded an IC50 (HT1080 cells) of 1000 to 10000 nM and an IC50 (IDH1 R132H) of 500 to 1000 nM.
`N#Cc1cc(Nc2ccnc(Cl)c2)c(C2CC2)nc1N1CCN(C(=O)CCO)[C@H](C2CC2)C1` [Compound 677, (R)-5-((2-chloropyridin-4-yl)amino)-6-cyclopropyl-2-(3-cyclopropyl-4-(3-hydroxypropanoyl)piperazin-1-yl)nicotinonitrile] showed an IC50 (HT1080 cells) of less than 500 nM and an IC50 (IDH1 R132H) of less than 500 nM.
In the case of `COCCC(=O)N1CCN(c2nc(C3CC3)c(Nc3ccnc(Cl)c3)cc2C#N)C[C@H]1C1CC1` [Compound 679, (R)-5-((2-chloropyridin-4-yl)amino)-6-cyclopropyl-2-(3-cyclopropyl-4-(3-methoxypropanoyl)piperazin-1-yl)nicotinonitrile], the IC50 (HT1080 cells) is reported as less than 500 nM and the IC50 (IDH1 R132H) is reported as less than 500 nM.
Work on `C=CC(=O)N1CCC=C(c2c(C3CC3)nc(N3CCN(C(=O)CCOC)[C@H](C)C3)c(C#N)c2C)C1` [Compound 680, (R)-5-(1-acryloyl-1,2,5,6-tetrahydropyridin-3-yl)-6-cyclopropyl-2-(4-(3-methoxypropanoyl)-3-methylpiperazin-1-yl)-4-methylnicotinonitrile] yielded an IC50 (HT1080 cells) of less than 500 nM and an IC50 (IDH1 R132H) of less than 500 nM.
`C=Cc1cc(Cc2cc(C#N)c(N3CCN(C(=O)C4CC4)[C@H](C4CC4)C3)nc2C2CC2)ccn1` [Compound 684, (R)-2-(4-(cyclopropanecarbonyl)-3-cyclopropylpiperazin-1-yl)-6-cyclopropyl-5-((2-vinylpyridin-4-yl)methyl)nicotinonitrile] gave an IC50 (HT1080 cells) of less than 500 nM and an IC50 (IDH1 R132H) of less than 500 nM.
Compound `N#Cc1cc(-c2cnnc(OS(=O)(=O)C(F)(F)F)c2)c(C2CC2)nc1N1CCN(C(=O)C2CC2)[C@H](C2CC2)C1` [Compound 687, (R)-5-(5-cyano-6-(4-(cyclopropanecarbonyl)-3-cyclopropylpiperazin-1-yl)-2-cyclopropylpyridin-3-yl)pyridazin-3-yl trifluoromethanesulfonate] has an IC50 (U87MG cells) of 500 to 1000 nM and an IC50 (IDH1 R132H) of less than 500 nM.
In the case of `C=Cc1cc(-c2cc(C#N)c(N3CCN(C(=O)CCO)[C@H](C4CC4)C3)nc2C2CC2)c2cccnc2n1` [Compound 691], the IC50 (U87MG cells) is reported as less than 500 nM.
`N#Cc1cc(Cc2ccnc(Cl)c2)c(C2CC2)nc1N1CCN(C(=O)CCO)[C@H](C2CC2)C1` [Compound 708, (R)-5-((2-chloropyridin-4-yl)methyl)-6-cyclopropyl-2-(3-cyclopropyl-4-(3-hydroxypropanoyl)piperazin-1-yl)nicotinonitrile] was tested, and the IC50 (U87MG cells) was 1000 to 10000 nM and the IC50 (IDH1 R132H) was less than 500 nM.
`C=CC(=O)N(c1cc(C#N)c(N2CCN(C(=O)CCOC)[C@H](C)C2)nc1C1CC1)c1ccnc2ccccc12` [Compound 712, (R)—N-(5-cyano-2-cyclopropyl-6-(4-(3-methoxypropanoyl)-3-methylpiperazin-1-yl)pyridin-3-yl)-N-(quinolin-4-yl)acryl amide] gave an IC50 (HT1080 cells) of 1000 to 10000 nM and an IC50 (IDH1 R132H) of less than 500 nM.
In the case of `C=Cc1cc(Nc2c(C3CC3)nc(N3CCN(C(=O)CCOC)[C@H](C(C)C)C3)c(C#N)c2C)ccn1` [Compound 807, (R)-6-cyclopropyl-2-(3-isopropyl-4-(3-methoxypropanoyl)piperazin-1-yl)-4-methyl-5-((2-vinylpyridin-4-yl)amino)nicotinonitrile], the IC50 (HT1080 cells) is reported as less than 500 nM and the IC50 (IDH1 R132H) is reported as less than 500 nM.
`N#Cc1ccnc(Nc2cc(C#N)c(N3CCN(C(=O)C[C@H]4CCO4)[C@H](C4CC4)C3)nc2C2CC2)n1` [Compound 808, 2-(5-cyano-2-cyclopropyl-6-((R)-3-cyclopropyl-4-(2-((R)-oxetan-2-yl)acetyl)piperazin-1-yl)pyridin-3-ylamino)pyrimidine-4-carbonitrile] gave an IC50 (HT1080 cells) of less than 500 nM and an IC50 (IDH1 R132H) of less than 500 nM.
For `N#Cc1ccnc(Nc2cc(C#N)c(N3CCN(C(=O)C[C@H]4CCO4)[C@H](C4CC4)C3)nc2C2CC2)c1` [Compound 809, 5-(4-cyanopyridin-2-ylamino)-6-cyclopropyl-2-((R)-3-cyclopropyl-4-(2-((R)-oxetan-2-yl)acetyl)piperazin-1-yl)nicotinonitrile], the IC50 (HT1080 cells) was less than 500 nM and the IC50 (IDH1 R132H) was less than 500 nM.
`C=Cc1ccnc(Nc2cc(C#N)c(N3CCN(C(=O)CCCO)[C@H](C4CC4)C3)nc2C2CC2)c1` [Compound 815, (R)-6-cyclopropyl-2-(3-cyclopropyl-4-(4-hydroxybutanoyl)piperazin-1-yl)-5-((4-vinylpyridin-2-yl)amino)nicotinonitrile] showed an IC50 (HT1080 cells) of less than 500 nM and an IC50 (IDH1 R132H) of less than 500 nM.
With `C=Cc1ccnc(Nc2cc(C#N)c(N3CCN(C(=O)CC4CCC4)[C@H](C4CC4)C3)nc2C2CC2)c1` [Compound 817, (R)-2-(4-(2-cyclobutylacetyl)-3-cyclopropylpiperazin-1-yl)-6-cyclopropyl-5-((4-vinylpyridin-2-yl)amino)nicotinonitrile] the IC50 (HT1080 cells) was less than 500 nM and the IC50 (IDH1 R132H) was less than 500 nM.
`C=Cc1cc(-c2cc(C#N)c(N3CCN(C(=O)CN4CCC4=O)[C@H](C4CC4)C3)nc2C2CC2)ccn1` [Compound 818] was tested, and the IC50 (HT1080 cells) was less than 500 nM and the IC50 (IDH1 R132H) was less than 500 nM.
`C=Cc1cc(-c2c(C3CC3)nc(N3CCN(C(=O)CC4CCC4)[C@H](C4CC4)C3)c(C#N)c2C)ccn1` [Compound 819, (R)-6-(4-(2-cyclobutylacetyl)-3-cyclopropylpiperazin-1-yl)-2-cyclopropyl-4-methyl-2′-vinyl-3,4′-bipyridine-5-carbonitrile] gave an IC50 (HT1080 cells) of less than 500 nM and an IC50 (IDH1 R132H) of less than 500 nM.
`C=Cc1cc(-c2cc(C#N)c(N3CCN(C(=O)C[C@H]4CCCO4)[C@H](C4CC4)C3)nc2C2CC2)ccn1` [Compound 822] gave an IC50 (HT1080 cells) of less than 500 nM and an IC50 (IDH1 R132H) of less than 500 nM.
`C=Cc1cc(-c2c(C3CC3)nc(N3CCN(C(=O)C[C@H]4CCO4)[C@H](C4CC4)C3)c(C#N)c2CC)ccn1` [Compound 823, 2-cyclopropyl-6-((R)-3-cyclopropyl-4-(2-((R)-oxetan-2-yl)acetyl)piperazin-1-yl)-4-ethyl-2′-vinyl-[3,4′-bipyridine]-5-carbonitrile] gave an IC50 (HT1080 cells) of less than 500 nM and an IC50 (IDH1 R132H) of less than 500 nM.
